Data reported in US20220142158A1, “ARTHROPOD CONTROL COMPOSITIONS” (FIRMENICH SA, priority 2019, published 2022).

Tested on: Aedes aegypti
Assay: Warm Body Assay, in-vitro repulsion of mosquitoes
Conditions: 100% at concentration 0
Description: The arthropod controlling effect according to the present invention is determined on mosquitoes using an adapted Warm Body assay as defined in Kröber T, Kessler S, Frei J, Bourquin M, Guerin P M. An in vitro assay for testing mosquito controlling compounds employing a warm body and carbon dioxide as a behavioral activator. J Am Mosq Control Assoc. 2010; 26:381-386.
The controlling effect according to the present invention is determined by testing the Warm Body assay against the yellow fever mosquito, Aedes aegypti Rockefeller strain. […] Observations of controlling efficacy were made on host-seeking females of uniform age, 5 to 10 days old selected as mentioned in the publication mentioned hereinabove. Tested hungry females had access to 10% sugar solution but were not blood-fed.
(§1) The published protocol has been adapted in not manually counting the landing mosquitoes but automatically using an automatic counting software, the switch from Anopheles gambiae to A. aegypti led to a decrease of mosquitoes' number placed in the tested cage due to the size difference (i.e. 30 mosquitoes instead of 50) and to an increase of lighting as A. aegypti is a diurnal mosquitoes (i.e. 150 lux instead of 4 lux).
The controlling efficacy in vitro was by an adapted Warm Body assay as defined in Kröber T, Kessler S, Frei J, Bourquin M, Guerin P M. An in vitro assay for testing mosquito controlling compounds employing a warm body and carbon dioxide as a behavioral activator. J Am Mosq Control Assoc. 2010; 26:381-386. The controlling effect according to the present invention is determined by testing the Warm Body assay against the yellow fever mosquito, A. aegypti Rockefeller strain.
as §1, with “Observations of controlling efficacy were made on host-seeking females of uniform age, 5 to 10 days old selected as mentioned in the publication mentioned hereinabove. Tested hungry females had access to 10% sugar solution but were not blood-fed. The” for “The”
In this in-vitro assay the number of A. aegypti landing on a warm body treated with the tested stimuli was measured in order to assess the repellency effect. […]

| Compound | Mean ± SD of normalized repulsion of mosquitoes Aedes aegypti (concentration 0.016 mg/mL) | Mean ± SD of normalized repulsion of mosquitoes Aedes aegypti (concentration 0.08 mg/mL) | Mean ± SD of normalized repulsion of mosquitoes Aedes aegypti (concentration 0.4 mg/mL) | Mean ± SD of normalized repulsion of mosquitoes Aedes aegypti (concentration 2 mg/mL) | Mean ± SD of normalized repulsion of mosquitoes Aedes aegypti (concentration 10 mg/mL) |
| --- | --- | --- | --- | --- | --- |
| CCN(CC)C(=O)c1cccc(C)c1 [DEET, N,N-diethyl-3-methylbenzamide] | 90% ± 9% | 42% ± 7% | 11% ± 5% | 2% ± 1% | 3% ± 3% |
| CCCCN(CCC(=O)OCC)C(C)=O [IR3535, ethyl butylacetylaminopropionate] | 103% ± 20% | 108% ± 14% | 31% ± 5% | 22% ± 9% | 11% ± 2% |
